Values after ≈ are worked out from the molar mass of the structure shown. Like-named read-outs stand apart in the source and are kept apart here.
Assays:
[1] = Franz diffusion cell skin drug permeation through cadaver skin, 24 hour period, HPLC; format: in vitro ADME; conditions: for Flux: cadaver skin; for Skin Flux: Table 4 (examples)
Procedure: As a way of measuring the skin drug permeation properties of the COX-2 inhibitors, a Franz diffusion cell was provided utilizing cadaver skin as the membrane and a 1% Tween 80 solution as the receptor phase. Frozen cadaver skin was thawed at room temperature and punched with a 20 mm puncher. The receptor compartment of the Franz diffusion cell was filled with 1% Tween 80 solution and the diffusion cells maintained at 32° C. A 6% polyethylene glycol-20-oleyl ether is also suitable as a receptor fluid. The skin was mounted on the receptor, covered with the cup and fastened by a clamp. The air bubbles were removed from the receptor fluid and it was allowed to equilibrate for 30 minutes. COX-2 pharmaceutical compositions, according to the present invention, were brought into contact with the cadaver skin and the amount of drug which permeated through the cadaver skin in a 24 hour period was determined by high performance liquid chromatography.

[2] = Solubility of the drug in vehicles (drug saturated solutions); format: physicochemical
[3] = Table 1, drug saturated solution, vehicle 70% EtOH, 32° C.
[4] = Table 1, drug saturated solution, vehicle EtOH
[5] = Table 6 (examples), Saturated Vb in 5% Pb, 67% EtOH
[6] = Table 6 (examples), Saturated Cb in 5% Pb, 67% EtOH

Flux [1, 3]	Flux [1, 4]	Skin Flux ([1]; % w/w: water 30, ethanol 30, isopropanol 10, 1,3-butanediol 22, oleyl alcohol 5, thymol 3)	Skin Flux ([1]; % w/w: water 30, ethanol 62, oleyl alcohol 5, thymol 3)	Skin Flux ([1]; % w/w: water 33, ethanol 62, oleyl alcohol 5)	Flux [1, 5]	solubility ([2]; aqueous with cosolvent or surfactant or cyclodextrin, thermodynamic from solid)	Flux [1, 6]	Effect as permeation enhancer on transdermal delivery of selective COX-2 drugs across the skin ([1]; parecoxib used as permeation enhancer)	solubility ([2]; 70% aqueous ethanol, aqueous with cosolvent or surfactant or cyclodextrin, thermodynamic from solid, Table 1, drug saturated solution, vehicle 70% EtOH, read-out: Solubility)	solubility ([2]; Table 2, 70% aqueous ethanol solution)	solubility ([2]; ethanol, organic solvent or mixture, thermodynamic from solid, Table 1, drug saturated solution, vehicle EtOH, read-out: Solubility)	solubility ([2]; polyethylene glycol 400, organic solvent or mixture, thermodynamic from solid, Table 1, drug saturated solution, vehicle PEG 400, read-out: Solubility)	solubility ([2]; propylene glycol, organic solvent or mixture, thermodynamic from solid, Table 1, drug saturated solution, vehicle PG, read-out: Solubility)	SMILES
12.8 μg/cm^2 · day	1.44 μg/cm^2 · day	302 ± 48.9 μg/cm^2 · day	441 ± 160 μg/cm^2 · day	287 ± 23.9 μg/cm^2 · day	108 ± 16.7 μg/cm^2 · day	–	–	–	–	–	–	–	–	Cc1onc(-c2ccccc2)c1-c1ccc(S(N)(=O)=O)cc1 [Valdecoxib, valdecoxib]
–	–	–	–	–	64.1 ± 11.3 μg/cm^2 · day	386 mg/mL (≈ 1040 mM)	74.7 ± 14.7 μg/cm^2 · day	increase the transdermal delivery	–	–	–	–	–	CCC(=O)NS(=O)(=O)c1ccc(-c2c(-c3ccccc3)noc2C)cc1 [Parecoxib, parecoxib]
15.7 μg/cm^2 · day	5.62 μg/cm^2 · day	–	–	–	–	–	183 ± 153 μg/cm^2 · day	–	15.2 mg/mL (≈ 39.9 mM)	15.2 mg/mL (≈ 39.9 mM)	91.4 mg/mL (≈ 240 mM)	297 mg/mL (≈ 779 mM)	33.3 mg/mL (≈ 87.3 mM)	Cc1ccc(-c2cc(C(F)(F)F)nn2-c2ccc(S(N)(=O)=O)cc2)cc1 [Celecoxib, celecoxib]

Reference: patent publication US20030211163A1, “Combination antiviral therapy” (priority 2002, published 2003)
